From US8680013B2, “Growth inhibition of cotton with penoxsulam” (Dow AgroSciences, LLC., priority 2011, dated 2014)
Where two headings read alike, the source gives them in different places.

Tests used:
Assay type in all cases: in vivo
cotton [1] = experiment: Postemergence plant growth regulator activity in the field (cotton); settings: for Injury (Cotton) / Reduction (height reduction, Cotton) / Maturity (% open bolls, Cotton): 10-leaf stage
Description: Evaluation of Postemergence Plant Growth Regulator Activity in the Field
(§1) One field trial was conducted in field-grown cotton using standard herbicide small plot research methodology (Table 2). Plots were 2 rows wide by 20 ft long with 4 replicates per treatment. The cotton crop was grown using normal cultural practices for fertilization, seeding, watering, flooding and maintenance to ensure good growth of the crop and the weeds.
(§2) All treatments in the field trials were applied using a CO2 backpack sprayer calibrated to apply 187 L/ha spray volume. Commercially available products of penoxsulam and mepiquat chloride were mixed in water at appropriate formulated product rates to achieve the desired rates based on a unit area of application (hectare) to achieve the desired rates as shown. Treatments were sprayed as a postemergence foliar application to cotton at 10-leaf stage application timing. Treatments were rated at 16 and 41 days after the application as compared to the untreated control plants. Visual crop injury ratings were scored on a scale of 0 to 100 where 0 corresponds to no injury and 100 corresponds to complete control. Visual weed control was scored on a scale of 0 to 100 percent where 0 corresponds to no weed control and 100 corresponds to complete control.

[2] = test system: Amaranthus spp, (pigweed); experiment: Field trial visual weed control, AMASS; settings: 16DAA
Description: as §1, §2

[3] = test system: Solanum nigrum (black nightshade); experiment: Field trial visual weed control, SOLNI; settings: 16DAA
Description: as §1, §2

cotton [4] = settings: for Number (Bolls): 52DAAA
Description: Evaluation of Postemergence Plant Growth Regulator Activity in the Greenhouse Treatments consisted of the compounds as listed in Table 1. Formulated amounts of penoxsulam (Dow AgroSciences Granite® SC herbicide) were placed in 3-liter bottles and dissolved in a volume of 500 mL of a water solution containing Agri-dex crop oil concentrate in a 1.25% v/v ratio. Compound requirements are based upon a 0.3 L application volume at a rate of 187 liters per hectare (L/ha). Spray solutions of the mixtures were prepared by adding the stock solutions to the appropriate amount of dilution solution to form a 500 mL spray solution with active ingredients in single and two way combinations. Formulated compounds were applied to the plant material via backpack sprayer with XR 11001 nozzles calibrated to deliver 187 L/ha at a spray height of 18 inches ([…] centimeters (cm)) above average plant canopy. The treated and control plants were placed in a greenhouse in a randomized block design on greenhouse carts and watered by […] irrigation to prevent wash-off of the test compounds from leafy tissues. Treatments were rated at 14 to 52 days after application as compared to the untreated control plants. Visual injury ratings were scored on a scale of 0 to 10 where 0 corresponds to no injury and 10 corresponds to complete control.

Structure (SMILES): C[N+]1(C)CCCCC1 [Mepiquat-chloride]
- Injury (Cotton) (cotton [1]; 74 gr ai/ha, 16DAA): 0 % Visual
- Reduction (height reduction, Cotton) (cotton [1]; 74 gr ai/ha, 16DAA): 11.3 % Visual
- Injury (Cotton) (cotton [1]; 74 gr ai/ha, 41DAA): 5 % Visual
- Maturity (% open bolls, Cotton) (cotton [1]; 74 gr ai/ha, 41DAA): 53.8 % Visual
- Reduction (height reduction, Cotton) (cotton [1]; 74 gr ai/ha, 41DAA): 13.8 % Visual
- Control (AMASS) ([2]; 74 gr ai/ha): 95 % Visual
- Control (SOLNI) ([3]; 74 gr ai/ha): 91.3 % Visual

Structure (SMILES): COc1cnc(OC)n2nc(NS(=O)(=O)c3c(OCC(F)F)cccc3C(F)(F)F)nc12 [Penoxsulam, 2-(2,2-difluoroethoxy)-N-(5,8-dimethoxy[1.2.4]triazolo[1,5-c]pyrimidine-2-yl)-6-(trifluoromethyl)benzenesulfonamide]
- Height (cotton [4]; 8.8 gr ai/ha, application A (4 leaf cotton), 14DAAA): 17.6 Cm
- Height (cotton [4]; 8.8 gr ai/ha, application A (4 leaf cotton), 27DAAA): 25.5 Cm
- Height (cotton [4]; 8.8 gr ai/ha, application A (4 leaf cotton), 49DAAA): 36.6 Cm
- Number (Bolls) (cotton [4]; 8.8 gr ai/ha, application A (4 leaf cotton)): 3.2 Bolls
- Height (cotton [4]; 8.8 gr ai/ha, application B (10 leaf cotton, 21 days after A timing), 14DAAA): 28.8 Cm
- Height (cotton [4]; 8.8 gr ai/ha, application B (10 leaf cotton, 21 days after A timing), 27DAAA): 32.7 Cm
- Height (cotton [4]; 8.8 gr ai/ha, application B (10 leaf cotton, 21 days after A timing), 49DAAA): 44 Cm
- Number (Bolls) (cotton [4]; 8.8 gr ai/ha, application B (10 leaf cotton, 21 days after A timing)): 9 Bolls
- Height (cotton [4]; 17.5 gr ai/ha, application A (4 leaf cotton), 14DAAA): 15.7 Cm
- Height (cotton [4]; 17.5 gr ai/ha, application A (4 leaf cotton), 27DAAA): 21.8 Cm
- Height (cotton [4]; 17.5 gr ai/ha, application A (4 leaf cotton), 49DAAA): 33.5 Cm
- Number (Bolls) (cotton [4]; 17.5 gr ai/ha, application A (4 leaf cotton)): 2.2 Bolls
- Height (cotton [4]; 17.5 gr ai/ha, application B (10 leaf cotton, 21 days after A timing), 14DAAA): 27.2 Cm
- Height (cotton [4]; 17.5 gr ai/ha, application B (10 leaf cotton, 21 days after A timing), 27DAAA): 30.4 Cm
- Height (cotton [4]; 17.5 gr ai/ha, application B (10 leaf cotton, 21 days after A timing), 49DAAA): 39.2 Cm
- Number (Bolls) (cotton [4]; 17.5 gr ai/ha, application B (10 leaf cotton, 21 days after A timing)): 8.4 Bolls
- Height (cotton [4]; 35 gr ai/ha, application A (4 leaf cotton), 14DAAA): 15.5 Cm
- Height (cotton [4]; 35 gr ai/ha, application A (4 leaf cotton), 27DAAA): 20.5 Cm
- Height (cotton [4]; 35 gr ai/ha, application A (4 leaf cotton), 49DAAA): 30.1 Cm
- Number (Bolls) (cotton [4]; 35 gr ai/ha, application A (4 leaf cotton)): 2.8 Bolls
- plant growth regulator effect on cotton (summary of Table 1) (cotton [4]; greenhouse): growth regulating activity of penoxsulam on cotton growth and increase in cotton boll production
- Reduction (height reduction, Cotton) (cotton [1]; 35 gr ai/ha, 16DAA): 11.3 % Visual
- Maturity (% open bolls, Cotton) (cotton [1]; 35 gr ai/ha, 41DAA): 62.5 % Visual
- Reduction (height reduction, Cotton) (cotton [1]; 35 gr ai/ha, 41DAA): 10 % Visual
- Reduction (height reduction, Cotton) (cotton [1]; 70 gr ai/ha, 16DAA): 9.3 % Visual
- Maturity (% open bolls, Cotton) (cotton [1]; 70 gr ai/ha, 41DAA): 48.8 % Visual
- Reduction (height reduction, Cotton) (cotton [1]; 70 gr ai/ha, 41DAA): 5 % Visual
- plant growth regulator effect on cotton (summary of Table 2) (cotton [1]; field): growth inhibiting activity of penoxsulam, similar to the commercial product mepiquat-chloride, while increasing the maturity of cotton bolls
- Control (AMASS) ([2]; 35 gr ai/ha): 95 % Visual
- Control (AMASS) ([2]; 70 gr ai/ha): 98.8 % Visual
- Control (SOLNI) ([3]; 35 gr ai/ha): 88.8 % Visual
- Control (SOLNI) ([3]; 70 gr ai/ha): 93.8 % Visual
